Reference: patent publication US10723723B2, “Substituted bicycle heterocyclic derivatives useful as ROMK channel inhibitors” (BRISTOL-MYERS SQUIBB COMPANY, priority 2016, dated 2020)

Key:
hROMK (human Kir1.1) = hROMK (human Kir1.1) (Homo sapiens (Human), UniProt P48048); assay: Thallium Flux Assay (FluxOR, CHO T-Rex hROMK stable cell line); format: cell-based; settings: CHO T-Rex hROMK cells, 10-point concentration response curve; read-out: Human ROMK TH Flux IC50
Description: Solutions and reagents: Thallium flux assay was performed using FluxOR kit (F10017, Life Technologies). Loading buffer, assay buffer and stimulus buffer were prepared using kit components.
To prepare 10 ml of loading buffer: 10 μl of FluxOR dye (reconstituted in DMSO) was first added to 100 μl of powerload concentrate and this mix along with 100 μl of Probenicid (100×) was then added to 9.79 ml of HBSS. […] Stimulus buffer was composed of 15 mM Tl2SO4, 0.75 mM K2SO4 in FluxOR chloride free buffer (diluted to 1× using deionized water). The final concentration of Tl2SO4 and K2SO4 in the assay plate was 3 mM and 0.15 mM, respectively.
Plating and induction of cells: The CHO T-Rex hROMK (human Kir1.1) stable cell line was maintained in Ham's F12 media supplemented with 10% FBS, 1% Penicillin-Streptomycin, 500 μg/ml Zeocin and 10 μg/ml Blasticidin at 37° C. in a 5% CO2 incubator. […] The cell suspension was centrifuged at 1200 rpm for 5 min. After discarding the supernatant, the cells were resuspended in fresh growth media and cell concentration was determined using a hemocytometer. […] The assay plate was kept at 37° C. in a 5% CO2 incubator.
Assay protocol: On the day of experiment, media was removed and loading buffer was added (30 μl/well) to the assay plate. The cells were incubated in the loading buffer for 30 minutes at 37° C. The loading buffer was then replaced by assay buffer (30 μl/well) followed by addition of test compounds or controls. […] Each well was read for 90 sec at 2 sec interval and the stimulus buffer was added after 20 seconds of baseline recording. The final DMSO concentration was either 0.5 or 1% in the assay plate. Positive and negative controls were defined by addition of DMSO or 3 μM of a standard ROMK inhibitor, respectively, to the wells instead of a test compound.
A 10-point concentration response curve was used to estimate the IC50 value of test compounds.

hERG channels = hERG channels (Homo sapiens (Human), UniProt Q12809); assay: hERG Manual Patch Clamp Assay (HEK 293 cells stably expressing hERG channels); format: cell-based; settings: human, HEK 293 cells stably expressing hERG channels, pH 7.4
hERG channels, sequence (Q12809 whole entry): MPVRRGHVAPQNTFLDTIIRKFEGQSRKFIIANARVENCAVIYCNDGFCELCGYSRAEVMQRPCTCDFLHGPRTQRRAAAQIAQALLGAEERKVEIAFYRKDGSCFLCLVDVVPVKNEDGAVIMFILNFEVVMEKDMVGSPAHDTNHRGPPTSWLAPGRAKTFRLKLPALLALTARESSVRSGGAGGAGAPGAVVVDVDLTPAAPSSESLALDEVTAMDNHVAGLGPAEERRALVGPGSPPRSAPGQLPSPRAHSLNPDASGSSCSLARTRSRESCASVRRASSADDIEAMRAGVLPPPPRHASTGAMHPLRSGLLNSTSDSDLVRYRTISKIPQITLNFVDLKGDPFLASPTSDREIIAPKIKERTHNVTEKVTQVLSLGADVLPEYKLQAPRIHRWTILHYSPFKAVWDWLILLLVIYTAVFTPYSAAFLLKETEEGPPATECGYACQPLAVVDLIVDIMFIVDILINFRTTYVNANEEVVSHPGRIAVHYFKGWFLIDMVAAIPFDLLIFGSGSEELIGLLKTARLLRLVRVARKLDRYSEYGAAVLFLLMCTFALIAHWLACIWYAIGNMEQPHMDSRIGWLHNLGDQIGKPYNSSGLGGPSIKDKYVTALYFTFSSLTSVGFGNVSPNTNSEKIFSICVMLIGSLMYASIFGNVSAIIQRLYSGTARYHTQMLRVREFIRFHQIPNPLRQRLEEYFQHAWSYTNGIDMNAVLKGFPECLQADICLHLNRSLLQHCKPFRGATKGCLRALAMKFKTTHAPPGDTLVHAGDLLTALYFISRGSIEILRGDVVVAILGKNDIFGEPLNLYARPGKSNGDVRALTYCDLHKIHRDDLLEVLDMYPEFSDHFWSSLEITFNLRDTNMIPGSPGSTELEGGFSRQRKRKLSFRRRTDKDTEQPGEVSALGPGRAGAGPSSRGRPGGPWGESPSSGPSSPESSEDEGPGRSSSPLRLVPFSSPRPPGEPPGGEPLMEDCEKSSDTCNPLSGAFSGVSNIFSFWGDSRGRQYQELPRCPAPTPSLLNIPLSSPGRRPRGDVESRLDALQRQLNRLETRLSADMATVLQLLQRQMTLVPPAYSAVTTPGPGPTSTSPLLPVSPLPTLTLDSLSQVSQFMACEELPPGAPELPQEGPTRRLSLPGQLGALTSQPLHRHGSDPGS

hROMK (human Kir1.1), sequence (P48048 whole entry): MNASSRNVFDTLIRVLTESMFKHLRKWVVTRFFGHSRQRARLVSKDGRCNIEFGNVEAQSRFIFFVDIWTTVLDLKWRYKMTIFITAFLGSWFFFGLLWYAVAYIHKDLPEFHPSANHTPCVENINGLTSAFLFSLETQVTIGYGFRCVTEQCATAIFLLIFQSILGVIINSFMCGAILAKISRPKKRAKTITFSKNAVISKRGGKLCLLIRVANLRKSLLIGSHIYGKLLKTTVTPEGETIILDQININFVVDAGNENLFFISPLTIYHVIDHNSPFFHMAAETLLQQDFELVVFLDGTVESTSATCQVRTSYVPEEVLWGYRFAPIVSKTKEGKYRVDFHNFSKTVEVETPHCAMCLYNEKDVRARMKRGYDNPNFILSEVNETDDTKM

Row | SMILES | IC50 (hROMK (human Kir1.1)) [nM] | inhibition at 1 µM (hERG channels) [%]
1 | Cc1cn(-c2ncc(CNC[C@H](O)c3ccc4c(c3C)COC4=O)cn2)nc1C#N [Example 94, (R)-1-(5-(((2-hydroxy-2-(4-methyl-1-oxo-1,3-dihydroisobenzofuran-5-yl)ethyl)amino)methyl)pyrimidin-2-yl)-4-methyl-1H-pyrazole-3-carbonitrile] | 56 | 13
2 | COc1nn(-c2ncc(CNC[C@H](O)c3ccc4c(c3C)COC4=O)cn2)cc1C#N [Example 113, (R)-1-(5-(((2-hydroxy-2-(4-methyl-1-oxo-1,3-dihydroisobenzofuran-5-yl)ethyl)amino)methyl)pyrimidin-2-yl)-3-methoxy-1H-pyrazole-4-carbonitrile] | 14 | 12
3 | Cc1cc(-n2cc(CNC[C@H](F)c3ccc4c(c3C)COC4=O)cn2)ncc1C#N [Example 167, (R)-6-(4-(((2-fluoro-2-(4-methyl-1-oxo-1,3-dihydroisobenzofuran-5-yl)ethyl)amino)methyl)-1H-pyrazol-1-yl)-4-methylnicotinonitrile] | 68 | 41
4 | Cc1cnc(-n2cc(CNC[C@H](O)c3ccc4c(c3C)COC4=O)cn2)cc1C#N [Example 49, (R)-2-(4-(((2-hydroxy-2-(4-methyl-1-oxo-1,3-dihydroisobenzofuran-5-yl)ethyl)amino)methyl)-1H-pyrazol-1-yl)-5-methylisonicotinonitrile] | 32 | 18
5 | Cc1c([C@@H](O)CNCc2cnc(-n3cnc(C#N)c3)nc2)ccc2c1COC2=O [Example 45, (R)-1-(5-(((2-hydroxy-2-(4-methyl-1-oxo-1,3-dihydroisobenzofuran-5-yl)ethyl)amino)methyl)pyrimidin-2-yl)-1H-imidazole-4-carbonitrile] | 12 | 74
6 | CO[C@@H](CNCc1cnn(-c2cc(C)c(C#N)cn2)c1)c1ccc2c(c1C)COC2=O [Example 147, (R)-6-(4-(((2-methoxy-2-(4-methyl-1-oxo-1,3-dihydroisobenzofuran-5-yl)ethyl)amino)methyl)-1H-pyrazol-1-yl)-4-methylnicotinonitrile] | 37 | 28
7 | COc1cc(-n2cc(CNC[C@H](O)c3ccc4c(c3C)COC4=O)cn2)nc(C)c1C#N [Example 70, (R)-6-(4-(((2-hydroxy-2-(4-methyl-1-oxo-1,3-dihydroisobenzofuran-5-yl)ethyl)amino)methyl)-1H-pyrazol-1-yl)-4-methoxy-2-methylnicotinonitrile] | 19 | 27
8 | COc1nn(-c2ccc(CNC[C@H](O)c3ccc4c(c3C)COC4=O)cn2)cc1C#N [Example 104, (R)-1-(5-(((2-hydroxy-2-(4-methyl-1-oxo-1,3-dihydroisobenzofuran-5-yl)ethyl)amino)methyl)pyridin-2-yl)-3-methoxy-1H-pyrazole-4-carbonitrile] | 9.4 | 42
9 | Cc1ncn(-c2ncc(CNC[C@H](O)c3ccc4c(c3C)COC4=O)cn2)c1C [Example 88, (R)-5-(2-(((2-(4,5-dimethyl-1H-imidazol-1-yl)pyrimidin-5-yl)methyl)amino)-1-hydroxyethyl)-4-methylisobenzofuran-1(3H)-one] | 42 | 3.6
10 | Cc1c([C@@H](O)CNCc2cn(-c3ccc4oc(=O)n(C)c4c3C)cn2)ccc2c1COC2=O [Example 149, (R)-5-(4-(((2-hydroxy-2-(4-methyl-1-oxo-1,3-dihydroisobenzofuran-5-yl)ethyl)amino)methyl)-1H-imidazol-1-yl)-3,4-dimethylbenzo[d]oxazol-2(3H)-one] | 84 | 8.6
11 | Cc1ncc(-c2ccc(CNC[C@H](O)c3ccc4c(c3C)COC4=O)cn2)s1 [Example 111, (R)-5-(1-hydroxy-2-(((6-(2-methylthiazol-5-yl)pyridin-3-yl)methyl)amino)ethyl)-4-methylisobenzofuran-1(3H)-one] | 48 | 69
12 | CCc1nn(-c2ncc(CNC[C@H](O)c3ccc4c(c3C)COC4=O)cn2)cc1C#N [Example 114, (R)-3-ethyl-1-(5-(((2-hydroxy-2-(4-methyl-1-oxo-1,3-dihydroisobenzofuran-5-yl)ethyl)amino)methyl)pyrimidin-2-yl)-1H-pyrazole-4-carbonitrile] | 17 | 25
13 | Cc1cc(-n2cc(CNC(C)C(O)c3ccc4c(c3C)COC4=O)cn2)ncc1C#N (single isomer, unassigned) [Example 176-I, 6-(4-(((1-hydroxy-1-(4-methyl-1-oxo-1,3-dihydroisobenzofuran-5-yl)propan-2-yl)amino)methyl)-1H-pyrazol-1-yl)-4-methylnicotinonitrile] | 4 | 44
14 | Cc1c([C@@H](O)CNCc2cnn(-c3ccc(C#N)cc3)c2)ccc2c1COC2=O [Example 160, (R)-4-(4-(((2-hydroxy-2-(4-methyl-1-oxo-1,3-dihydroisobenzofuran-5-yl)ethyl)amino)methyl)-1H-pyrazol-1-yl)benzonitrile] | 24 | 89
15 | Cc1c([C@@H](O)CNCc2cnn(-c3cc(F)c4oc(=O)n(C)c4c3)c2)ccc2c1COC2=O (single isomer, unassigned) [Example 107] | 27 | 20
16 | CNc1cc(-n2cc(CNC[C@H](O)c3ccc4c(c3C)COC4=O)cn2)ncc1C#N [Example 146, (R)-6-(4-(((2-hydroxy-2-(4-methyl-1-oxo-1,3-dihydroisobenzofuran-5-yl)ethyl)amino)methyl)-1H-pyrazol-1-yl)-4-(methylamino)nicotinonitrile] | 25 | 61
17 | Cc1cc(-n2cc(CNC[C@H](O)c3ccc4c(c3C)COC4=O)cn2)cnc1C#N [Example 73, (R)-5-(4-(((2-hydroxy-2-(4-methyl-1-oxo-1,3-dihydroisobenzofuran-5-yl)ethyl)amino)methyl)-1H-pyrazol-1-yl)-3-methylpicolinonitrile] | 36 | 31
18 | Cc1cn(-c2ccc(CNC[C@H](O)c3ccc4c(c3C)COC4=O)cn2)nn1 [Example 118, (R)-5-(1-hydroxy-2-(((6-(4-methyl-1H-1,2,3-triazol-1-yl)pyridin-3-yl)methyl)amino)ethyl)-4-methylisobenzofuran-1(3H)-one] | 70 | 16
19 | CCOc1cc(-n2cc(CNC[C@H](O)c3ccc4c(c3C)COC4=O)nn2)ncc1C#N [Example 156, (R)-4-ethoxy-6-(4-(((2-hydroxy-2-(4-methyl-1-oxo-1,3-dihydroisobenzofuran-5-yl)ethyl)amino)methyl)-1H-1,2,3-triazol-1-yl)nicotinonitrile] | 9.7 | 15
20 | Cc1c([C@@H](O)CNCc2cnn(-c3cnc(C#N)cn3)c2)ccc2c1COC2=O [Example 41, (R)-5(4-(((2-hydroxy-2-(4-methyl-1-oxo-1,3-dihydroisobenzofuran-5-yl)ethyl)amino)methyl)-1H-pyrazol-1-yl)pyrazine-2-carbonitrile] | 32 | 50
21 | COc1cc(-c2ncc(CNC[C@H](O)c3ccc4c(c3C)COC4=O)cn2)ncc1C#N [Example 134, (R)-6-(5-(((2-hydroxy-2-(4-methyl-1-oxo-1,3-dihydroisobenzofuran-5-yl)ethyl)amino)methyl)pyrimidin-2-yl)-4-methoxynicotinonitrile] | 77 | 3.8
22 | Cc1cn(-c2ccc(CNC[C@H](O)c3ccc4c(c3C)COC4=O)cn2)nc1C#N [Example 92, (R)-1-(5-(((2-hydroxy-2-(4-methyl-1-oxo-1,3-dihydroisobenzofuran-5-yl)ethyl)amino)methyl)pyridin-2-yl)-4-methyl-1H-pyrazole-3-carbonitrile] | 6.4 | 24
23 | Cc1cc(-c2ncc(CNC[C@H](O)c3ccc4c(c3C)COC4=O)s2)ncc1C#N [Example 128, (R)-6-(5-(((2-hydroxy-2-(4-methyl-1-oxo-1,3-dihydroisobenzofuran-5-yl)ethyl)amino)methyl)thiazol-2-yl)-4-methylnicotinonitrile] | 6.6 | 22
24 | COc1cc(-n2ncc3c(CNC[C@H](O)c4ccc5c(c4C)COC5=O)cccc32)ncc1C#N [Example 55] | 78 | 69
25 | CCOc1cc(-n2ncc(CNC[C@H](O)c3ccc4c(c3C)COC4=O)n2)ncc1C#N [Example 155, (R)-4-ethoxy-6-(4-(((2-hydroxy-2-(4-methyl-1-oxo-1,3-dihydroisobenzofuran-5-yl)ethyl)amino)methyl)-2H-1,2,3-triazol-2-yl)nicotinonitrile] | 31 | 20
26 | Cc1c([C@@H](O)CNCc2cnc(-n3cnc(C(F)(F)F)c3)nc2)ccc2c1COC2=O [Example 96, (R)-5-(1-hydroxy-2-(((2-(4-(trifluoromethyl)-1H-imidazol-1-yl)pyrimidin-5-yl)methyl)amino)ethyl)-4-methylisobenzofuran-1(3H)-one] | 62 | 19
27 | Cc1cc(-n2cc(CNC[C@H](O)c3ccc4c(c3C)COC4=O)n(C)c2=O)ncc1C#N [Example 159, (R)-6-(4-(((2-hydroxy-2-(4-methyl-1-oxo-1,3-dihydroisobenzofuran-5-yl)ethyl)amino)methyl)-3-methyl-2-oxo-2,3-dihydro-1H-imidazol-1-yl)-4-methylnicotinonitrile] | 93 | 6.5
28 | Cc1c([C@@H](O)CNCc2cnc(-n3cc(C#N)c(C(F)(F)F)n3)nc2)ccc2c1COC2=O [Example 110, (R)-1-(5-(((2-hydroxy-2-(4-methyl-1-oxo-1,3-dihydroisobenzofuran-5-yl)ethyl)amino)methyl)pyrimidin-2-yl)-3-(trifluoromethyl)-1H-pyrazole-4-carbonitrile] | 42 | 13
